{
  "source": "paper PMC6627374",
  "about": "“Effects of the Pentapeptide P33 on Memory and Synaptic Plasticity in APP/PS1 Transgenic Mice: A Novel Mechanism Presenting the Protein Fe65 as a Target” (International Journal of Molecular Sciences, 2019)",
  "key": {"[1]": {"biological_target": "T1, Fe65-WW domain (WW domain of Fe65) (Homo sapiens, UniProt O00213)", "T1 construct": "made in house; host or cells: chemical solid-phase peptide synthesis (Fmoc, Rink Amide AM resin); no expression host", "T1 sequence (O00213 253-285 limits assumed)": "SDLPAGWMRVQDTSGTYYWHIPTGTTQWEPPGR", "assay": "ITC binding to Fe65-WW", "set-up": "species or system human and mouse (WW domain identical)", "details": "310 K", "procedure": "Synthesis of acetyl-Fe65-WW, acetyl-Pin1-WW, and the control PPPPP (structures involved in Figure 2) was carried out on a Rink Amide AM (0.3 mmol∙g^−1) resin using Fmoc chemistry and activation with HATU in the presence of DIPEA. Cleavage was achieved by a treatment with TFA/H2O/triisopropylsilane/1,4-dithio-DL-threitol/phenol (90:5:3:1:1) at room temperature (RT). TFA was removed in vacuo, the peptides were then precipitated using cold, dry diethyl-ether, dissolved in ACN/H2O and lyophilized.\nIsothermal titrations were performed using a Microcal VP-ITC (Malvern Instruments, Malvern, UK) microcalorimeter. Binding experiments were carried out in degassed phosphate-buffered saline (PBS) at pH 7.4. The concentrations of Fe65-WW and Pin1-WW were normalized for the peptide contents. In one titration experiment, 10-μL portions of the ligand-containing solution (P33 or PPPPP) were injected from a computer-controlled 300-μL microsyringe at intervals of 300 s into the solution of the WW domain (Fe65-WW or Pin1-WW), dissolved in the same buffer as for the ligand. The rev of the microsyringe was set to 307 rpm. Measurements were repeated twice at 310 K. The starting concentrations of Fe65-WW and Pin1-WW in the cell were 83.5 and 81.4 μM, respectively, and the concentrations of the stock solutions containing P33 or PPPPP in the syringe were 1.006 and 1.056 mM, respectively. Control experiments were performed by injecting P33 or PPPPP into the cell containing plain buffer without the WW domain, with results achieved via subtracting the dilution heats from those measured in the presence of the WW domain."}, "synaptophysin (SYN)": {"test_system": "synaptophysin (SYN)", "assay": "Western blot, synaptophysin (SYN) level", "assay_type": "in vivo, mouse", "details": "four groups WT/APP/PS1, vehicle/P33; 5 mg∙kg^−1 i.p., six months", "procedure": "For this study, three-month-old male and female WT and APP/PS1 mice (n = 37) were used. Four groups were defined: WT-vehicle (physiological saline) (male n = 4; female n = 6), WT-P33 (male n = 6; female n = 5), APP/PS1-vehicle (male n = 3; female n = 5), and APP/PS1-P33 (male n = 6; female n = 2). Animals were subjected to intraperitoneal (i.p.) injections of P33 (5 mg∙kg^−1) for five days per week, over a course of six months. The mice were kept in groups under constant temperature (23 ± 0.5 °C), lighting (12-h/12-h light/dark cycle, lights on at 7:00 a.m.), and humidity (~50%). Standard mouse chow and tap water were supplied ad libitum. All behavioral experiments were performed in the light period. […]\nProtein samples, identically prepared as for ELISA, (20 μg/lane) were separated on a 15% SDS-polyacrylamide gel (80 V, 20 min at RT; than 130 V, 60 min at RT) or on a 4–12% NuPAGE® Bis-Tris Gel (Thermo Fischer Scientific, Waltham, MA, USA, 200V, 30 min at RT) and transferred to a nitrocellulose membrane (Whatman, Maidstone, UK, 450 mA, 90 min at 4 °C). […] Membranes were scanned with a Bio-Rad Molecular Imager® ChemiDoc™ XRS+Imaging System (Bio-Rad Laboratories, Hercules, CA, USA) and evaluated with the Image Lab 4.0 software.\nThe results of spine density and immunohistochemistry experiments were calculated with one-way ANOVA followed by Fisher’s LSD post hoc tests. […]"}},
  "note": "“And” between values parts separate entries of the source, which are not always exact repeats. Equal entries are not always repeated. Where a SMILES comes first, the peptide text is derived from it.",
  "data": [
    {"smiles": "C[C@@H](N)C(=O)N1CCC[C@@H]1C(=O)N[C@H](C)C(=O)N1CCC[C@@H]1C(=O)N[C@H](CCC(=O)O)C(N)=O", "note": "[P33] (HELM PEPTIDE1{[dA].[dP].[dA].[dP].[dE].[am]}$$$$V2.0)", "values": [
      {"measurement": "selectivity of binding, Fe65-WW over Pin1-WW (in words)", "setting": "[1]; PBS pH 7.4", "result": "can bind selectively to the Fe65-WW domain"},
      {"measurement": "ΔH", "setting": "[1]; PBS pH 7.4", "result": "0.082 ± 0.001", "unit": "kcal/mol"},
      {"measurement": "stoichiometric factor N", "setting": "[1]; PBS pH 7.4, 1:1 [P33]/[Fe65-WW] complex", "result": "1.14 and 1.14 ± 0.01"},
      {"measurement": "Kd", "setting": "[1]; PBS pH 7.4, Fe65-WW 83.5 μM in cell, P33 1.006 mM in syringe, measurements repeated twice, read-out: dissociation constant Kd", "result": "4.68 ± 0.04", "unit": "µM"},
      {"measurement": "SYN level, effect (in words)", "setting": "synaptophysin (SYN)", "result": "significant differences were not found between the groups"}
    ]}
  ]
}
